# Test results as given in ChEMBL document CHEMBL1125855, “C-2 desmethyl seco-mevinic acids. Monocyclic HMG-CoA reductase inbibitors” (Bioorg Med Chem Lett, 1991).
# Biological target: T1, 3-hydroxy-3-methylglutaryl-coenzyme A reductase (Rattus norvegicus, UniProt P51639)
# T1 sequence (P51639 whole entry): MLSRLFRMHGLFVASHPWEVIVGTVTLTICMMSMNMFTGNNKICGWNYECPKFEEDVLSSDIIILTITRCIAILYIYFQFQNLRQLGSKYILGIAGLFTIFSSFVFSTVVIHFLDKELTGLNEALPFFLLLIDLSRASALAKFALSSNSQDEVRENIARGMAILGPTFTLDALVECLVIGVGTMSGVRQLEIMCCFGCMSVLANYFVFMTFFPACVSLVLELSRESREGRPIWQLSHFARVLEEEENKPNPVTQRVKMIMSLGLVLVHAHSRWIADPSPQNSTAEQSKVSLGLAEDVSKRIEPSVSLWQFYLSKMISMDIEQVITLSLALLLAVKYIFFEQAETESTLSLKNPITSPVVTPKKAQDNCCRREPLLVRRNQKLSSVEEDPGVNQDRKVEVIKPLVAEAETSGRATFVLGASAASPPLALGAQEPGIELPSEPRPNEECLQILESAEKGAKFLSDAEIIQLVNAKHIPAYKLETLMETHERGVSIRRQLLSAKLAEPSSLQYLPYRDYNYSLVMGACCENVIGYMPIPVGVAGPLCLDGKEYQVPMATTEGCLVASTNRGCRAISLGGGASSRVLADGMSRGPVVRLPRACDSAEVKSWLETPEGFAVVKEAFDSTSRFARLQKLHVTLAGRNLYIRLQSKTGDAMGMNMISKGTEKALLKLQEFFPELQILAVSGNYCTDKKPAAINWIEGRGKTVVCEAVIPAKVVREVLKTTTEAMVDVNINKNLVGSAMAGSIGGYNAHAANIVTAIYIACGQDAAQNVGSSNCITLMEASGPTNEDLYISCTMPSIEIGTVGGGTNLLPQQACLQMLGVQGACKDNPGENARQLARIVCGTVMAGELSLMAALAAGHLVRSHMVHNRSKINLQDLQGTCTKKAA
# Test: (§1) In vitro ability to inhibit HMG-CoA reductase
# Details: read-out: I50
row,IC50 [µM],SMILES
1,320,CC[C@H](C)C(=O)OC[C@H]1CCCC[C@@H]1CCC(=O)C[C@@H](O)CC(=O)O

# Biological target: T2, 3-hydroxy-3-methylglutaryl-coenzyme A reductase (Homo sapiens, UniProt P04035)
# T2 sequence (P04035 whole entry): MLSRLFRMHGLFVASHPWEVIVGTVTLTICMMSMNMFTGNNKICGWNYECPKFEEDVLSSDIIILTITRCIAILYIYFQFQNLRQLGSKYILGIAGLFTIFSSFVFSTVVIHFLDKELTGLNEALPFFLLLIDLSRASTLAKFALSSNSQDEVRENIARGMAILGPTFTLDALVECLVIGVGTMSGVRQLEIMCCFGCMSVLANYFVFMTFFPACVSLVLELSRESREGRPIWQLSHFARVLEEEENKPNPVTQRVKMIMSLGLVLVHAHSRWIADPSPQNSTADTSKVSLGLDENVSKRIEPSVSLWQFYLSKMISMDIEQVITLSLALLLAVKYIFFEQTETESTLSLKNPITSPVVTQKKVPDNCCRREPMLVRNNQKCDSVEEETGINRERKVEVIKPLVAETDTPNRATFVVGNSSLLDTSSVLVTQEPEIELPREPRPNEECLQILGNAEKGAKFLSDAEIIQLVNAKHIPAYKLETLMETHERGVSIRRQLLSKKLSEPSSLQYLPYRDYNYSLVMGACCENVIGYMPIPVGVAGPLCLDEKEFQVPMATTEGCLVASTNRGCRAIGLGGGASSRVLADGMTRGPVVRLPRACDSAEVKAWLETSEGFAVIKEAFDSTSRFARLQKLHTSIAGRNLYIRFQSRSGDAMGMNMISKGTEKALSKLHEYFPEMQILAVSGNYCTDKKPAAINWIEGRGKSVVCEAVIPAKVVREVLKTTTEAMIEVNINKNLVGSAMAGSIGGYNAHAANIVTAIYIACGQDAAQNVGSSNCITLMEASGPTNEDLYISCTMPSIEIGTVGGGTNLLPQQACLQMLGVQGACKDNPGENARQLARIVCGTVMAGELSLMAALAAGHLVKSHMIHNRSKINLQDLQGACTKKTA
# Test: as §1
# Details: read-out: I50
row,SMILES,IC50 [µM]
1,CCC[C@@H]1CCC[C@H](/C=C/[C@@H](O)C[C@@H](O)CC(=O)O)[C@H]1COC(=O)C(C)(C)CC,4.9
2,CCC(C)(C)C(=O)OC[C@H]1CCCC[C@@H]1CCC(O)C[C@@H](O)CC(=O)O (stereo partly specified),4.6
3,CCC[C@@H]1CCC[C@H](CC[C@@H](O)C[C@@H](O)CC(=O)O)[C@H]1COC(=O)C(C)(C)CC,1.7

# Other lines, results leading:
row,IC50 [µM],SMILES
1,1500,C[C@H]1C=CC[C@H](COC(=O)C(C)(C)C)[C@H]1CCC(O)CC(O)CC(=O)O (stereo partly specified)
2,0.008,CCC[C@@H]1CC[C@H](C)[C@H](CC[C@@H](O)C[C@@H](O)CC(=O)O)[C@H]1COC(=O)C(C)(C)CC
